Experimental data reported in PMC7249060, “The Antiproliferative Effects of Flavonoid MAO Inhibitors on Prostate Cancer Cells” (Molecules, 2020).

Experiments:
[1] = test system: LNCaP cells; test: cells; format: cell-based, human; conditions: for effect on LNCaP proliferation and cell morphology: 20 μM, five days, phase contrast; for viability at 20 µM: Homo sapiens, LNCaP, 120 h, read-out: percentage of treated group compared to the viable control
Procedure: The morphological alterations of the LNCaP cells were imaged, and their percentage proliferation rate was measured after five-days of incubation. The method of subculture and treatment were similar to our antiproliferation assay, with slight modifications. Briefly, the cells were seeded in transparent flat-bottom 96-well microplates with 10,000 cells/175 μL/well of […] experimental media. Following overnight incubation, 20 μM concentration level (~2 × IC50) for each of KKR11, 20, 7, 2A, 21, and the standard PIRL were added to the cells for a total volume of 200 μL/well and re-incubated for five-days. On the day of imaging, 20X phase-contrast images of lid-covered treated and control cells were captured using an inverted microscope. Resazurin was then added for viability detection, and the imaged cells in the wells were read after 4.5 h on the Bio-Tek Synergy HTX Multi-reader.

[2] = test system: LNCaP cells; test: Antiproliferation screen assay, resazurin, 72 h; format: cell-based, human; conditions: 50 μM
Procedure: (§1) In this screen, we examined the growth inhibitory effects of all synthesized KKRs on the three human PCa cell lines LNCaP, DU145, and PC3. The antiproliferative clinical drug TAX of 0.25 μM was used as a positive control. Additionally, different standards of MAO-Is and FLUT were tested for their effect on the LNCaP cells. Briefly, the procedures and materials used were the same as for the viability assay except for the following—cultured cells were seeded at 10,000 cells/175-µL/well related experimental media, and the resazurin solution was added after 72 h of incubation with the compounds of 50 μM each.

[3] = test system: DU145 cells; test: Antiproliferation screen assay, resazurin, 72 h; format: cell-based, human; conditions: 50 μM
Procedure: as §1

[4] = test system: DU145 cells; test: Scratch migration assay; format: cell-based, human; conditions: preliminary data
Procedure: For in-vitro migration experiments, the PCa metastatic DU145 cell line was used. Cell proliferation and cytotoxicity were monitored for assay validation. The cells (passage # ≤ 10) were grown in fresh media of EMEM 10% FBS, 1% P/S. The cells were seeded in flat-bottom transparent 96-well microplates (100,000 cells/100 μL/well) in EMEM 5% FBS, 1% P/S experimental media. The next day, the confluent cells monolayer was artificially injured by scratching a line across each well, using a 200 μL tip. Immediately, the old media with the detached cells were replaced with 175 μL fresh warm experimental media. Intact cells were then treated with 25 μL of HBSS buffer 7.4 containing tested KKR. In addition to the negative control, KKR11 was tested at gradual concentrations to make finals of 40, 30, 23, 17, and 13 μM. The cells were then incubated for an additional 72 h for gap closure of the control wells.
At the gap closure time point, all cells were subjected to the crystal violet assay that only stains viable cells. Briefly, all media were carefully aspired from cells that were then washed with Ca- and Mg-free PBS. The cells were then fixed with 100 μL 0.25% v/v glutaraldehyde, at 37 °C for 20–30 min incubation time, and dried overnight. The next day, all viable attached cells were stained with a 100 μL crystal violet solution (0.1% in DI-water) for up to 30 min. The solution was then discarded, and the stained cells were kept dry for imaging. Images of the scratched areas were photographed using 10X phase contrast objective lenses of Motic-MXH-100-AE31E-Elite Inverted Microscope.

[5] = test system: LNCaP cells; test: Antiproliferation dose-response assay for 72 h; format: cell-based; conditions: Homo sapiens, mean ± SEM of two experiments, read-out: antiproliferative IC50
Procedure: For the top effective KKRs, along with TAX, their potency to reduce the affected PCa cell line growth in a dose-dependent manner was determined using the resazurin fluorescence assay. We followed the same protocols and materials used for the antiproliferation screen assays (Section 4.3.2), with the following modifications. The maximum final KKR concentration used was 40 μM. The concentration of 8X of each KKR working solution in 1% HEPES 7.4 was serially diluted in a 3:1 ratio, compound to buffer, respectively. Each data set was collected from ten data points of 3.7–40 μM range. The control had the KKR substituted with buffer. The related IC50 averages were analyzed for the compounds that affected the cell lines the most.

Row | SMILES | effect on LNCaP proliferation and cell morphology [1] | viability at 20 µM [1] [%] | antiproliferative effect in screen [2] | antiproliferative effect in screen [3] | effect on cell migration [4] | IC50 [5] [µM]
1 | COc1cc(O)c(C(=O)/C=C/c2ccc(Cl)c(Cl)c2)c(OC)c1 [KKR11, (E)-3-(3,4-dichlorophenyl)-1-(2-hydroxy-4,6-dimethoxyphenyl)prop-2-en-1-one] | dramatically and differently altered cell morphology with a highly significant loss of proliferation | 11 | top five KKRs that kept standing out with antiproliferative effects | top effective | delayed cell migration | 9.5
2 | O=c1cc(-c2ccccc2)oc2cc(Cl)c(Cl)cc12 [KKR21, 6,7-dichloro-2-phenyl-4H-chromen-4-one] | neither significant effects on LNCaP proliferation nor apparent changes in cell morphology | 94 | no effects on any of the screened PCa cell models | no effects on any of the screened PCa cell models |  | > 40
3 | O=C(/C=C/c1ccccc1)c1cc(Cl)cc(Cl)c1O [KKR20, (E)-1-(3,5-dichloro-2-hydroxyphenyl)-3-phenylprop-2-en-1-one] | dramatically and differently altered cell morphology with a highly significant loss of proliferation | 26 | top five KKRs that kept standing out with antiproliferative effects |  | no significant effects against cell migration | 9.2
4 | O=c1c(O)c(-c2ccccc2)oc2c(Cl)cc(Cl)cc12 [KKR7, 6,8-dichloro-3-hydroxy-2-phenyl-4H-chromen-4-one] | dramatically and differently altered cell morphology with a highly significant loss of proliferation | 25 |  | top effective | no significant effects against cell migration | 9.1
5 | COc1cc(OC)c2c(=O)c(O)c(/C=C/c3cc(OC)c(OC)c(OC)c3)oc2c1 [KKR2A, (E)-3-hydroxy-5,7-dimethoxy-2-(3,4,5-trimethoxystyryl)-4H-chromen-4-one] | neither significant effects on LNCaP proliferation nor apparent changes in cell morphology | 96 | no effects on any of the screened PCa cell models | no effects on any of the screened PCa cell models |  | > 40
